Experimental data published in publication PMC9620171 (Journal of Medicinal Chemistry, 2022).
Read-outs that look alike come from different tables or passages of the source.

Experiments:
[1] = system: HSV; details: lead optimization; ref 11 and data on file; cited from earlier work
[2] = lead optimization; ref 11 and data on file; cited from earlier work
[3] = Physicochemical properties of pritelivir mesylate monohydrate; details: 50 for the classification system
[4] = compared with other salts and salt/hydrates; cited from earlier work
[5] = system: HSV-1; test: Murine lethal challenge assay, intranasal HSV-1 infection; type: in vivo, mice; details: using molar doses
[6] = system: HSV-2; test: Murine lethal challenge assay, intranasal HSV-2 infection; type: in vivo, mice; details: using molar doses
[7] = Pharmacokinetics after oral administration, rat; details: in vivo, 1 mg/kg, elimination half-life in rodents
[8] = Pharmacokinetics after oral administration, dog; details: in vivo, 1 mg/kg
[9] = Pharmacokinetics after oral administration, human; details: in vivo, 100 mg
[10] = Routes of elimination of pritelivir in humans; type: in vivo; details: yields pyridinyl phenyl acetic acid and amino thiazole sulfonamide
[11] = system: two human helicases, one nuclear and one located in the mitochondria; test: Inhibition of human helicases; type: biochemical; details: one nuclear and one mitochondrial human helicase
[12] = system: liver, heart muscle, kidney, macrophages, monocytes, T lymphocytes, fibroblasts, and neuronal cells; test: Cytotoxicity on a panel of different cell types; type: cell-based
[13] = system: bacterial reversion and mammalian cell chromosome aberration; test: Genotoxicity, standard ICH battery; type: cell-based; details: in vitro; free base and mesylate monohydrate examined
[14] = system: HSV; details: rats; three daily oral doses, pritelivir 0.5 and 2 mg/kg, valacyclovir 45 and 135 mg/kg; cited from earlier work
[15] = system: HSV-1; details: cited from earlier work; for effectiveness on lesion score and virus shedding: wild-type HSV-1, postinfection day 1 to day 4
[16] = system: HSV-1; details: oral, start 72 h postinfection; cited from earlier work
[17] = system: HSV-2; details: 10 and 30 mg/kg twice a day, start 72 h postinfection; cited from earlier work
[18] = system: HSV-2; details: cited from earlier work; for recurrence rate per 10-day period: early treatment days 0–4, follow-up up to 85 days, control 1.0; for time to return to a disease score of zero: control 14 days
[19] = system: HSV-2; details: day 3 to day 7 postinfection, cited from earlier work
[20] = system: HSV-1; details: 24 h after heat stress; two oral doses of 50 mg/kg; controls 1.4 × 10^6; cited from earlier work
[21] = system: HSV-1; details: cited from earlier work
[22] = system: HSV; details: pritelivir-resistant, plaque-purified virus, in vitro; cited from earlier work
[23] = system: other herpesviruses; details: cited from earlier work
[24] = system: acyclovir resistant, mucocutaneous HSV infection; details: preliminary data, cited from earlier work
[25] = system: HSV; details: four times daily swabbing; cited from earlier work
[26] = after administration of its prodrug valacyclovir in experimental animals; cited from earlier work
[27] = cited from earlier work

CNS(=O)(=O)c1sc(N(C)C(=O)Nc2ccc(-c3ccccc3)cc2)nc1C [Compound 3]
in vivo activity / efficacy [1]: superior in vivo efficacy than valacyclovir

Cc1nc(N(C)C(=O)Cc2ccc(-c3ccccc3)cc2)sc1S(N)(=O)=O [Compound 9]
in vivo activity / efficacy [1]: high in vitro and in vivo activity | solubility [2]: solubility remained a challenging issue

CS(=O)(=O)O.Cc1nc(N(C)C(=O)Cc2ccc(-c3ccccn3)cc2)sc1S(N)(=O)=O.O [Pritelivir mesylate monohydrate]
BCS class [3]: BCS class 2 | stability under forced degradation conditions [4]: highest stability

Cc1nc(N(C)C(=O)Cc2ccc(-c3ccccn3)cc2)sc1S(N)(=O)=O [Compound 16, pritelivir]
potency factor vs ganciclovir [5]: 8 fold | potency factor vs ganciclovir [6]: 3 fold | half-life [7]: ≥ 5 h | half-life [8]: ≥ 22 h | half-life [9]: 60 to 70 h | share of elimination by nonenzymatic hydrolysis [10]: more than 50% | inhibition of human helicases [11]: Neither of these enzymes was inhibited | cytotoxicity [12]: lack of cytotoxicity | genotoxic potential [13]: nongenotoxic | in vivo activity / efficacy [1]: excellent in vivo activity | efficacy compared with valacyclovir [14]: superior efficacy | efficacy against HSV-1 mutant without wild-type mixture ([15]; mutant alone, even at 60 mg/kg): practically ineffective | outcome of high-dose extended treatment ([15]; pritelivir-resistant HSV-1 strain, 60 mg/kg for 8 days): prevented mortality and weight loss | influence on lesion score and virus shedding ([15]; pritelivir-resistant HSV-1 strain, oral 10 mg/kg, day 1 to day 4): only marginal | effectiveness on lesion score and virus shedding ([15]; oral 5 mg/kg): largely | effectiveness on lesion score and virus shedding ([15]; oral 10 mg/kg): fully | b.i.d. dose at which 3-week mortality was already decreased [16]: 0.3 mg/kg | 3-week mortality [17]: no mortality | recurrence rate per 10-day period ([18]; 20 mg/kg b.i.d.): 0.4 | recurrence rate per 10-day period ([18]; 30 mg/kg b.i.d.): 0.3 | decrease of viral shedding compared to controls ([18]; day 2 postinfection, vaginal swabs, 20 mg/kg b.i.d.): 3 orders of magnitude | viral load in sacral dorsal root ganglia ([18]; days 7, 25 and 85 postinfection, vs valacyclovir and control groups): considerably lower | time to return to a disease score of zero ([18]; oral 20 mg/kg b.i.d., day 4 to day 14 postinfection): 7 days | recurrence of lesion score after treatment ([19]; oral 15 or 60 mg/kg t.i.d.): no such recurrence was observed | mean viral genome copy number in trigeminal ganglia [20]: 2.4 × 10^2 | EC50 ([21]; read-out: in vitro EC50, wild-type HSV-1, wild-type): 30 nM | higher in vitro ED50 of pritelivir-resistant HSV-1 strain ([21]; resistant strain vs wild-type): 27 fold | frequency of resistant HSV mutants [22]: 0.5 to 4.5 × 10^–6 | activity against other herpesviruses [23]: only weak (if any) activity | solubility [2]: much better solubility | subjects whose lesions improved but did not heal completely ([24]; of the 23 subjects treated): 4 subjects | tolerability [24]: well tolerated without significant adverse effects | efficacy vs valacyclovir in viral shedding rate and days with lesions [25]: superior efficacy vs valacyclovir

Nc1nc2c(ncn2COCCO)c(=O)[nH]1 [acyclovir]
acyclovir bioavailability [26]: 58–84%

Cc1nc(N(C)C(=O)Cc2ccc(-n3cccn3)cc2)sc1S(N)(=O)=O [Compound 13]
solubility [2]: improved solubility

Nc1nc2c(ncn2CCC(CO)CO)c(=O)[nH]1 [penciclovir]
half-life of penciclovir ([27]; after dosing with the prodrug famciclovir): 2.0 to 2.5 h | bioavailability ([27]; human, penciclovir via famciclovir): 60–77%

CC(C)[C@H](N)C(=O)OCCOCn1cnc2c(=O)nc(N)[nH]c21 [valacyclovir, reference compound]
recurrence rate per 10-day period ([18]; 100 mg/kg t.i.d. or 150 mg/kg b.i.d.): 0.9 | time to return to a disease score of zero ([18]; 150 mg/kg b.i.d., delayed treatment): 12 days | effect on viral shedding ([18]; valacyclovir 150 mg/kg b.i.d., vaginal swabs): no discernible effect | mortality ([19]; oral 60 mg/kg t.i.d. (lower dose level)): 100%

Cc1nc(N(C)C(=O)Cc2ccc(-c3cccnc3)cc2)sc1S(N)(=O)=O [Compound 15]
solubility [2]: less soluble

Cc1nc(N(C)C(=O)Cc2ccc(-c3c(C)noc3C)cc2)sc1S(N)(=O)=O [Compound 14]
solubility [2]: improved solubility
